± gives the expanded uncertainty stated by the source.
Columns and labels:
[1] = refractive index (Na D-line) (dimensionless); details: 293.1 K; 101.33 kPa; Liquid; Standard Abbe refractometry
[2] = Liquid

With `CC(Cl)CCl` (stereo not drawn) [1,2-dichloropropane] the refractive index [1] was 1.4383 ± 0.0007.
For `CC(O)CCl` (stereo not drawn) [1-chloro-2-propanol], the refractive index [1] was 1.4377 ± 0.0007, the “vapor or sublimation pressure” value ([2]; 293.15 K) was 1.199 ± 0.99 kPa and the “vapor or sublimation pressure” value ([2]; 303.15 K) was 2.225 ± 1.1 kPa. The “vapor or sublimation pressure” value ([2]; 313.15 K) was 3.981 ± 1.3 kPa, the “vapor or sublimation pressure” value ([2]; 323.15 K) was 6.662 ± 1.7 kPa and the “vapor or sublimation pressure” value ([2]; 333.15 K) was 10.88 ± 2.4 kPa. The “vapor or sublimation pressure” value ([2]; 343.15 K) was 17.2 ± 3.3 kPa, the “vapor or sublimation pressure” value ([2]; 353.15 K) was 26.48 ± 4.7 kPa and the “vapor or sublimation pressure” value ([2]; 363.15 K) was 39.8 ± 6.7 kPa. The “vapor or sublimation pressure” value ([2]; 369.15 K) was 50.1 ± 8.2 kPa.
In the case of `CC(C)(Cl)OC(C)(C)Cl` [propane, 2,2'-oxybis[2-chloro-], the refractive index [1] is reported as 1.4473 ± 0.0007, the “vapor or sublimation pressure” value ([2]; 303.15 K) is reported as 0.24 ± 0.18 kPa and the “vapor or sublimation pressure” value ([2]; 313.15 K) is reported as 0.564 ± 0.34 kPa. For the same compound, the “vapor or sublimation pressure” value ([2]; 323.1 K) was 0.867 ± 0.49 kPa, the “vapor or sublimation pressure” value ([2]; 333.05 K) was 1.28 ± 0.7 kPa and the “vapor or sublimation pressure” value ([2]; 343 K) was 1.919 ± 0.69 kPa. The “vapor or sublimation pressure” value ([2]; 352.9 K) was 2.822 ± 0.78 kPa, the “vapor or sublimation pressure” value ([2]; 358.15 K) was 3.673 ± 0.87 kPa and the “vapor or sublimation pressure” value ([2]; 358.45 K) was 3.348 ± 0.83 kPa. For the same compound, the “vapor or sublimation pressure” value ([2]; 361.15 K) was 4.237 ± 0.92 kPa, the “vapor or sublimation pressure” value ([2]; 364.15 K) was 4.806 ± 0.97 kPa and the “vapor or sublimation pressure” value ([2]; 367.15 K) was 5.477 ± 1 kPa.

Source: the NIST ThermoML archive (doi:10.1021/je800122x)
